Laboratory results published in patent US9387249B2, “Methods of treating hypertension with at least one angiotensin II receptor blocker and chlorthalidone” (Takeda Pharmaceutical Company Limited, priority 2008, dated 2016).

Tests used:
Type in all cases: in vivo, human
[1] = tested on: patients with stage 2 hypertension; assay: Phase 3 randomized double-blind study: safety (adverse events, laboratory tests)
From the text: More specifically, as will be discussed in more detail below, the purpose of this study is evaluate the change in 24-hour mean systolic blood pressure (SBP) by ambulatory blood pressure monitoring (ABPM) in response to (5-methyl-2-oxo-1,3-dioxol-4-yl)methyl 2-ethoxy-1-{[2′-(5-oxo-4,5-dihydro-1,2,4-oxadiazol-3-yl)biphenyl-4-yl]methyl}-1H-benzimidazole-7-carboxylate potassium salt plus chlorthalidone compared to placebo plus chlorthalidone for 6 weeks in subjects with uncontrolled essential hypertension. Subjects that qualify for the studied will be discontinued from their current antihypertensive medication. After a 2-week run-in-period, subjects who meet the entry criteria will be given (5-methyl-2-oxo-1,3-dioxol-4-yl)methyl 2-ethoxy-1-{[2′-(5-oxo-4,5-dihydro-1,2,4-oxadiazol-3-yl)biphenyl-4-yl]methyl}-1H-benzimidazole-7-carboxylate potassium salt plus chlorthalidone or placebo plus chlorthalidone once daily for 6 weeks. Blood pressure will be monitored during study visits and ABPM will be used to evaluate blood pressure for 24-hour periods twice during the study. Subjects will receive physical examinations including measurement of vital signs and blood and urine samples will be collected (for analyses related to safety monitoring during study visits). […]

[2] = tested on: patients with stage 2 hypertension; assay: Phase 3 randomized double-blind study: change in clinic SBP; settings: chlorthalidone plus placebo once daily
Experimental: (§1) This is a phase 3, multi-center, randomized, parallel group, double-blind, placebo-controlled, study to evaluate the efficacy and safety of (5-methyl-2-oxo-1,3-dioxol-4-yl)methyl 2-ethoxy-1-{[2′-(5-oxo-4,5-dihydro-1,2,4-oxadiazol-3-yl)biphenyl-4-yl]methyl}-1H-benzimidazole-7-carboxylate potassium salt when combined with chlorthalidone 25 mg once daily (QD) in subjects with uncontrolled essential hypertension.
(§2) More specifically, as will be discussed in more detail below, the purpose of this study is evaluate the change in 24-hour mean systolic blood pressure (SBP) by ambulatory blood pressure monitoring (ABPM) in response to (5-methyl-2-oxo-1,3-dioxol-4-yl)methyl 2-ethoxy-1-{[2′-(5-oxo-4,5-dihydro-1,2,4-oxadiazol-3-yl)biphenyl-4-yl]methyl}-1H-benzimidazole-7-carboxylate potassium salt plus chlorthalidone compared to placebo plus chlorthalidone for 6 weeks in subjects with uncontrolled essential hypertension. Subjects that qualify for the studied will be discontinued from their current antihypertensive medication. […] Blood pressure will be monitored during study visits and ABPM will be used to evaluate blood pressure for 24-hour periods twice during the study. […]

[3] = tested on: patients with stage 2 hypertension; assay: Phase 3 randomized double-blind study: change from baseline in 24-hour mean SBP by ambulatory blood pressure monitoring (ABPM); settings: Chlorthalidone 25 mg + placebo once daily, oral, 6 weeks
Experimental: as §1, §2

Structure (SMILES) | Effect on the hypokalemia seen with chlorthalidone alone ([1]; azilsartan medoxomil added to chlorthalidone) | Hypokalemia, frequency ([1]; chlorthalidone plus placebo compared with chlorthalidone plus azilsartan medoxomil) | Absolute reduction in clinic SBP [2] | Δ from baseline, mean, Absolute, Mean 24-Hour SBP by ABPM [3]
CCOc1nc2cccc(C(=O)OCc3oc(=O)oc3C)c2n1Cc1ccc(-c2ccccc2-c2noc(=O)[nH]2)cc1.[K] [Azilsartan medoxomil, (5-methyl-2-oxo-1,3-dioxol-4-yl)methyl 2-ethoxy-1-{[2′-(5-oxo-4,5-dihydro-1,2,4-oxadiazol-3-yl)biphenyl-4-yl]methyl}-1H-benzimidazole-7-carboxylate potassium salt] | attenuated the hypokalemia |  |  | 
NS(=O)(=O)c1cc(C2(O)NC(=O)c3ccccc32)ccc1Cl (stereo not shown) [Chlorthalidone, 2-chloro-5-(1-hydroxy-3-oxo-1,2-dihydroisoindol-1-yl)-benzenesulfonamide] |  | more frequent | −21.8 mm Hg | −15.9 mm Hg
